Where “and” joins values, the source holds several entries; their conditions need not be identical. Equal entries are not always repeated.
Assays:
[1] = test system: HCE-T (human cornea epithelial cell) (HCE-T(사람 각막 상피 세포)); assay: Hyaluronic acid amount in HCE-T medium by hyaluronan-ELISA; format: cell-based; set-up: dose or concentration left out as unconfirmed; conditions: 1 ml medium containing cytidine, 72 h, 37℃
[2] = test system: dry eye model in CBA/J mice (CBA/J 마우스의 건성안 모델); format: in vivo, mouse

Nc1ccn([C@@H]2O[C@H](CO)[C@@H](O)[C@H]2O)c(=O)n1 [시티딘]
amount of hyaluronic acid (mean) [1]: 88.9 | amount of hyaluronic acid compared with control group ([1]; versus control): 히아루론산의 양이 대조군에 비하여 증가하지 않음 | tear volume (mean) ([2]; N 8): 7.39 and 4.54 and 6.18 and 7.03 | tear volume compared with control group ([2]; mouse, in vivo): 유의하게 눈물의 양이 증가 | tear volume compared with normal group ([2]; mouse, in vivo): 정상군에 해당하는 눈물량의 분비
